Data on 2 compounds can be found in ChEMBL document CHEMBL5303573, “Mapping human microbiome drug metabolism by gut bacteria and their genes” (Nature, 2019).

The first data set can be described thus: The drug is tested on Bacteroides fragilis strain: ATCC43859 for biotransformation. The drug concentrations were measured before and after a 12-h incubation by liquid-chromatography-coupled mass spectrometry (LC–MS). Conditions: 2 µM.
As for `O=C(Nc1ccccc1)OCC(CN1CCCCC1)OC(=O)Nc1ccccc1` (centres undefined) [DIPERODON], the “Bacterial Biotransformation” value is recorded as “Compound NOT metabolized”.

The next data set is described as follows: The drug is tested on Enterobacter cancerogenus strain: ATCC35316 for biotransformation. The drug concentrations were measured before and after a 12-h incubation by liquid-chromatography-coupled mass spectrometry (LC–MS). Conditions: 2 µM.
Consider `OC(Cn1cncn1)(Cn1cncn1)c1ccc(F)cc1F` [FLUCONAZOLE], for which the “Bacterial Biotransformation” value is on record as “Compound NOT metabolized”.

The nature of the next data set: The drug is tested on Coprococcus comes strain: ATCC27758 for biotransformation. The drug concentrations were measured before and after a 12-h incubation by liquid-chromatography-coupled mass spectrometry (LC–MS). Format: ADME. Also noted: dose 2 uM, timepoint 0 vs 12 hours. Conditions: 2 µM.
On to `O=C(Nc1ccccc1)OCC(CN1CCCCC1)OC(=O)Nc1ccccc1` (centres undefined) [DIPERODON], for which the “Bacterial Biotransformation” value was “Compound NOT metabolized”.

Another data set in a line: The drug is tested on Bacteroides coprophilus strain: DSM18228 for biotransformation. The drug concentrations were measured before and after a 12-h incubation by liquid-chromatography-coupled mass spectrometry (LC–MS). Conditions: 2 µM.
As to `OC(Cn1cncn1)(Cn1cncn1)c1ccc(F)cc1F` [FLUCONAZOLE], the “Bacterial Biotransformation” value is given as “Compound NOT metabolized”.
Same read-out and setting: the entry for `O=C(Nc1ccccc1)OCC(CN1CCCCC1)OC(=O)Nc1ccccc1` (centres undefined) [DIPERODON] is “Compound NOT metabolized”.

A further data set can be described thus: The drug is tested on Collinsella intestinalis strain: DSM13280 for biotransformation. The drug concentrations were measured before and after a 12-h incubation by liquid-chromatography-coupled mass spectrometry (LC–MS). Conditions: 2 µM.
As for `OC(Cn1cncn1)(Cn1cncn1)c1ccc(F)cc1F` [FLUCONAZOLE], the “Bacterial Biotransformation” value is on record as “Compound NOT metabolized”.
On the same count and under the same terms, the entry for `O=C(Nc1ccccc1)OCC(CN1CCCCC1)OC(=O)Nc1ccccc1` (centres undefined) [DIPERODON] is “Compound NOT metabolized”.

The nature of another data set: The drug is tested on Eubacterium rectale strain: ATCC33656 for biotransformation. The drug concentrations were measured before and after a 12-h incubation by liquid-chromatography-coupled mass spectrometry (LC–MS). The conditions noted are these: agathobacter rectalis, 2 µM.
As for `O=C(Nc1ccccc1)OCC(CN1CCCCC1)OC(=O)Nc1ccccc1` (centres undefined) [DIPERODON], the “Bacterial Biotransformation” value is “Compound NOT metabolized”.

Another data set in a line: The drug is tested on Blautia luti strain: DSM14534 for biotransformation. The drug concentrations were measured before and after a 12-h incubation by liquid-chromatography-coupled mass spectrometry (LC–MS). The format is ADME. More on the design: dose 2 uM, timepoint 0 vs 12 hours. Conditions: 2 µM.
Regarding `OC(Cn1cncn1)(Cn1cncn1)c1ccc(F)cc1F` [FLUCONAZOLE], the “Bacterial Biotransformation” value is recorded as “Compound NOT metabolized”.
`O=C(Nc1ccccc1)OCC(CN1CCCCC1)OC(=O)Nc1ccccc1` (centres undefined) [DIPERODON]: the “Bacterial Biotransformation” value is reported as “Compound NOT metabolized”.

The nature of the next data set: The drug is tested on Bacteroides fragilis strain: HMW610 for biotransformation. The drug concentrations were measured before and after a 12-h incubation by liquid-chromatography-coupled mass spectrometry (LC–MS). Conditions: 2 µM.
Turning to `OC(Cn1cncn1)(Cn1cncn1)c1ccc(F)cc1F` [FLUCONAZOLE], the “Bacterial Biotransformation” value was “Compound metabolized”.
The same measure, in the same setting: as for `O=C(Nc1ccccc1)OCC(CN1CCCCC1)OC(=O)Nc1ccccc1` (centres undefined) [DIPERODON], the entry is “Compound NOT metabolized”.

A short description of another data set: The drug is tested on Edwardsiella tarda strain: ATCC23685 for biotransformation. The drug concentrations were measured before and after a 12-h incubation by liquid-chromatography-coupled mass spectrometry (LC–MS). The conditions noted are these: 2 µM.
For `OC(Cn1cncn1)(Cn1cncn1)c1ccc(F)cc1F` [FLUCONAZOLE], the “Bacterial Biotransformation” value is listed as “Compound NOT metabolized”.
As to `O=C(Nc1ccccc1)OCC(CN1CCCCC1)OC(=O)Nc1ccccc1` (centres undefined) [DIPERODON], the “Bacterial Biotransformation” value is “Compound NOT metabolized”.

For the next data set the following is noted: bacteroides stercoris, 12 h, 2 µM.
Description: The drug is tested on Bacteroides stercoris strain: ATCC43183 for biotransformation. The drug concentrations were measured before and after a 12-h incubation by liquid-chromatography-coupled mass spectrometry (LC–MS)
In the case of `OC(Cn1cncn1)(Cn1cncn1)c1ccc(F)cc1F` [FLUCONAZOLE], the “Bacterial Biotransformation” value was “Compound metabolized”.
`O=C(Nc1ccccc1)OCC(CN1CCCCC1)OC(=O)Nc1ccccc1` (centres undefined) [DIPERODON]: the “Bacterial Biotransformation” value was “Compound NOT metabolized”.

A short description of the next data set: The drug is tested on Clostridium symbiosum strain: ATCC14940 for biotransformation. The drug concentrations were measured before and after a 12-h incubation by liquid-chromatography-coupled mass spectrometry (LC–MS). Conditions: 2 µM.
Regarding `OC(Cn1cncn1)(Cn1cncn1)c1ccc(F)cc1F` [FLUCONAZOLE], the “Bacterial Biotransformation” value is “Compound metabolized”.
The same measure, in the same setting: the entry for `O=C(Nc1ccccc1)OCC(CN1CCCCC1)OC(=O)Nc1ccccc1` (centres undefined) [DIPERODON] is “Compound NOT metabolized”.

The next data set in a line: The drug is tested on Dorea formicigenerans strain: ATCC27755 for biotransformation. The drug concentrations were measured before and after a 12-h incubation by liquid-chromatography-coupled mass spectrometry (LC–MS). The conditions noted are these: 2 µM.
As to `OC(Cn1cncn1)(Cn1cncn1)c1ccc(F)cc1F` [FLUCONAZOLE], the “Bacterial Biotransformation” value is “Compound metabolized”.
As to `O=C(Nc1ccccc1)OCC(CN1CCCCC1)OC(=O)Nc1ccccc1` (centres undefined) [DIPERODON], the “Bacterial Biotransformation” value is reported as “Compound NOT metabolized”.

A short description of a further data set: The drug is tested on Bacteroides pectinophilus strain: ATCC43243 for biotransformation. The drug concentrations were measured before and after a 12-h incubation by liquid-chromatography-coupled mass spectrometry (LC–MS). Conditions: 2 µM.
On to `OC(Cn1cncn1)(Cn1cncn1)c1ccc(F)cc1F` [FLUCONAZOLE], for which the “Bacterial Biotransformation” value is “Compound NOT metabolized”.
On the same count and under the same terms, as for `O=C(Nc1ccccc1)OCC(CN1CCCCC1)OC(=O)Nc1ccccc1` (centres undefined) [DIPERODON], the entry is “Compound NOT metabolized”.

A short description of another data set: The drug is tested on Parabacteroides merdae strain: ATCC43184 for biotransformation. The drug concentrations were measured before and after a 12-h incubation by liquid-chromatography-coupled mass spectrometry (LC–MS). The conditions noted are these: 2 µM.
As to `OC(Cn1cncn1)(Cn1cncn1)c1ccc(F)cc1F` [FLUCONAZOLE], the “Bacterial Biotransformation” value is listed as “Compound NOT metabolized”.
Still for that read-out and setting: the entry for `O=C(Nc1ccccc1)OCC(CN1CCCCC1)OC(=O)Nc1ccccc1` (centres undefined) [DIPERODON] is “Compound NOT metabolized”.

The next data set can be described thus: The drug is tested on Bacteroides ovatus strain: ATCC8483 for biotransformation. The drug concentrations were measured before and after a 12-h incubation by liquid-chromatography-coupled mass spectrometry (LC–MS). The conditions noted are these: 2 µM.
`OC(Cn1cncn1)(Cn1cncn1)c1ccc(F)cc1F` [FLUCONAZOLE]: the “Bacterial Biotransformation” value is given as “Compound metabolized”.
On the same count and under the same terms, the entry for `O=C(Nc1ccccc1)OCC(CN1CCCCC1)OC(=O)Nc1ccccc1` (centres undefined) [DIPERODON] is “Compound NOT metabolized”.

Another data set in a line: The drug is tested on Clostridium asparagiforme strain: DSM15981 for biotransformation. The drug concentrations were measured before and after a 12-h incubation by liquid-chromatography-coupled mass spectrometry (LC–MS). Format: ADME. More on the design: dose 2 uM, timepoint 0 vs 12 hours. Conditions: enterocloster asparagiformis, 2 µM.
As to `OC(Cn1cncn1)(Cn1cncn1)c1ccc(F)cc1F` [FLUCONAZOLE], the “Bacterial Biotransformation” value was “Compound NOT metabolized”.
On the same count and under the same terms, the entry for `O=C(Nc1ccccc1)OCC(CN1CCCCC1)OC(=O)Nc1ccccc1` (centres undefined) [DIPERODON] is “Compound NOT metabolized”.

Another data set in a line: The drug is tested on Ruminococcus torques strain: ATCC27756 for biotransformation. The drug concentrations were measured before and after a 12-h incubation by liquid-chromatography-coupled mass spectrometry (LC–MS). The format is ADME. More on the design: dose 2 uM, timepoint 0 vs 12 hours. Conditions: 2 µM.
With `OC(Cn1cncn1)(Cn1cncn1)c1ccc(F)cc1F` [FLUCONAZOLE], the “Bacterial Biotransformation” value was “Compound metabolized”.
Same read-out and setting: as for `O=C(Nc1ccccc1)OCC(CN1CCCCC1)OC(=O)Nc1ccccc1` (centres undefined) [DIPERODON], the entry is “Compound NOT metabolized”.

For the next data set the following is noted: enterocloster bolteae, 12 h, 2 µM.
Description: The drug is tested on Clostridium bolteae strain: ATCCBAA-613 for biotransformation. The drug concentrations were measured before and after a 12-h incubation by liquid-chromatography-coupled mass spectrometry (LC–MS)
For the compound `OC(Cn1cncn1)(Cn1cncn1)c1ccc(F)cc1F` [FLUCONAZOLE], the “Bacterial Biotransformation” value is listed as “Compound NOT metabolized”.
The same measure, in the same setting: as for `O=C(Nc1ccccc1)OCC(CN1CCCCC1)OC(=O)Nc1ccccc1` (centres undefined) [DIPERODON], the entry is “Compound NOT metabolized”.

The next data set can be described thus: The drug is tested on Alistipes indistinctus strain: DSM22520 for biotransformation. The drug concentrations were measured before and after a 12-h incubation by liquid-chromatography-coupled mass spectrometry (LC–MS). The conditions noted are these: 2 µM.
Regarding `OC(Cn1cncn1)(Cn1cncn1)c1ccc(F)cc1F` [FLUCONAZOLE], the “Bacterial Biotransformation” value is reported as “Compound NOT metabolized”.
On the same count and under the same terms, the entry for `O=C(Nc1ccccc1)OCC(CN1CCCCC1)OC(=O)Nc1ccccc1` (centres undefined) [DIPERODON] is “Compound NOT metabolized”.
